Test results from patent US5691135A, “Immunoglobulin superantigen binding to gp 120 from HIV” (The Regents of the University of California, priority 1994, dated 1997).
Values joined by “and” are separate entries in the source; they are usually repeats but may differ in a detail not shown here. Equal entries are not always repeated. “Also recorded” adds a separate entry of the source.

Columns and labels:
[1] = test system: monoclonal IgM HEA binding to gp120; design: species or system human; conditions: for RESIDUAL BINDING TO gp120 (% OF CONTROL), 1.0 μM PEPTIDE / RESIDUAL BINDING TO gp120 (% OF CONTROL), 10.0 μM PEPTIDE: gp120 elisa
[2] = test system: monoclonal IgM VNG binding to gp120; design: species or system human; conditions: for RESIDUAL BINDING TO gp120 (% OF CONTROL), 1.0 μM PEPTIDE / RESIDUAL BINDING TO gp120 (% OF CONTROL), 10.0 μM PEPTIDE: gp120 elisa
[3] = test system: polyclonal serum IgM binding to gp120 from HIV-1SF2; design: species or system human; conditions: for RESIDUAL BINDING TO gp120 (% OF CONTROL), 1.0 μM PEPTIDE / RESIDUAL BINDING TO gp120 (% OF CONTROL), 10.0 μM PEPTIDE: gp120 elisa
[4] = test system: monoclonal IgM RSJ binding to gp120; design: species or system human; conditions: gp120 elisa
[5] = test system: monoclonal IgM VIN binding to gp120; design: species or system human; conditions: gp120 elisa
[6] = test system: panel of Ig-SAg binding antibodies (polyclonal IgM plus four monoclonal IgM) binding to gp120; design: species or system human
CD19+ tonsil B-cells = type: cell-based, human
[7] = test system: tonsil T-cells (CD19-, CD3+); type: cell-based, human

| Substance | RESIDUAL BINDING TO gp120 (% OF CONTROL), 1.0 μM PEPTIDE [2] [% OF CONTROL] | RESIDUAL BINDING TO gp120 (% OF CONTROL), 10.0 μM PEPTIDE [2] [% OF CONTROL] | RESIDUAL BINDING TO gp120 (% OF CONTROL), 1.0 μM PEPTIDE [4] [% OF CONTROL] | RESIDUAL BINDING TO gp120 (% OF CONTROL), 1.0 μM PEPTIDE [5] [% OF CONTROL] | RESIDUAL BINDING TO gp120 (% OF CONTROL), 10.0 μM PEPTIDE [5] [% OF CONTROL] | RESIDUAL BINDING TO gp120 (% OF CONTROL), 10.0 μM PEPTIDE [4] [% OF CONTROL] | RESIDUAL BINDING TO gp120 (% OF CONTROL), 1.0 μM PEPTIDE [3] [% OF CONTROL] | RESIDUAL BINDING TO gp120 (% OF CONTROL), 10.0 μM PEPTIDE [3] [% OF CONTROL] | RESIDUAL BINDING TO gp120 (% OF CONTROL), 1.0 μM PEPTIDE [1] [% OF CONTROL] | RESIDUAL BINDING TO gp120 (% OF CONTROL), 10.0 μM PEPTIDE [1] [% OF CONTROL] | other results |
| --- | --- | --- | --- | --- | --- | --- | --- | --- | --- | --- | --- |
| CRIKQIIMWQKVGKAMYAPPISG [Peptide 1589, gp160 peptide 418-441, HIV-1 IIIB] | – | – | – | – | – | – | – | – | – | – | inhibition of HEA binding to gp120 [1]: inhibited the binding of HEA to gp120 |
| CTRPNYNKRKRIHIGPGRAF [Peptide 1985, gp160 peptide 301-320, HIV-1 MN] | 27.4 ± 0.5 | 24.2 ± 0.1 | – | – | – | – | – | – | – | – | binding of VNG to peptide [2]: bound; inhibition of polyclonal serum IgM binding to gp120 [3]: does not inhibit |
| DTEVHNVWATQACVPTDPNP [Peptide 1925, gp160 peptide 61-81, HIV-1 MN] | – | – | – | – | – | – | – | – | – | – | inhibition of gp120 binding to VH3 IgM (VH3 IgM binding to gp120): neither actin nor the 1925 peptide inhibited |
| EGTIKGGEMKNCSFNITTSI [Peptide 1934, gp160 peptide 151-170, HIV-1 MN] | – | – | 13.9 ± 0.3 | – | – | – | – | – | – | – | – |
| GKAMYAPPIEGQIRCSSNIT [Peptide 2008, gp160 peptide 431-450, HIV-1 MN] | – | – | – | 108 ± 4.3 | 15.7 ± 1.7 | – | – | – | – | – | – |
| KGSCKNVSTVQCTHGIRPVV [Peptide 1960, gp160 peptide 241-260, HIV-1 MN] | 58.1 ± 0 | 32.3 ± 7.1 | 10.2 ± 2.4 | 6.2 ± 1.3 | 5.8 ± 1.3 | 4.2 ± 5.0 | 19.2 ± 1.0 | 11.7 ± 2.3 | 11.3 ± 2.5 | 6.2 ± 3.0 | peptide binding across all Ig tested [6]: bound to all Ig tested |
| KQIINMWQEVGKAMYAPPIE [Peptide 2007, gp160 peptide 421-440, HIV-1 MN] | – | – | 24.1 ± 0.1 | 69.8 ± 4.2 | 21.2 ± 1.2 | 3.1 ± 0.7 | 59.1 ± 0.8 | 19.8 ± 5.4 | 56.2 ± 4.7 | 10.3 ± 0.5 | – |
| KWNDTLRQIVSKLKEQFKNK [Peptide 1989, gp160 peptide 341-360, HIV-1 MN] | – | – | – | 96.6 ± 6.1 | 13.4 ± 1.8 | – | 88.5 ± 3.6 | 24.6 ± 6.6 | 98.3 ± 0.1 | 26.2 ± 0.8 | – |
| LKCNDKKFSGKGSCKNVSTV [Peptide 1959, gp160 peptide 231-250, HIV-1 MN] | 48.7 ± 0.9 | 13.7 ± 3.6 | 40.5 ± 8.2 | 12.6 ± 1.0 | 8.0 ± 0.2 | 17.2 ± 1.7 | 37.0 ± 4.4 | 16.8 ± 8.4 | 28.3 ± 3.7 | 8.4 ± 5.3 | peptide binding across all Ig tested [6]: bound to all Ig tested |
| MRVKGIRRNYQHWWGWGTM [Peptide 1919, gp160 peptide, amino acids 1-20, HIV-1 MN] | 46.4 ± 20.2 | 3.3 ± 1.7 | 11.1 ± 1.5 | 28.1 ± 5.0 | 14.8 ± 2.0 | 1.3 ± 0.1 | 17.6 ± 0.2 | – | 56.1 ± 3.6 | 15.1 ± 2.1 | inhibition of gp120 binding to VH3 IgM (VH3 IgM binding to gp120): inhibited gp120 binding to VH3 IgM; inhibition of IgM binding to gp120 by shared peptides [6]: abolished the binding of IgM to gp120; peptide binding across all Ig tested [6]: bound to all Ig tested; also recorded: bound to all of the monoclonal antibodies as well as to polyclonal serum IgM |
| RQAHCNISRAKWNDTLRQIV [Peptide 1988, gp160 peptide 331-350, HIV-1 MN] | – | – | 20.3 ± 1.5 | 12.4 ± 0.6 | 12.2 ± 7.8 | 13.5 ± 0.4 | 39.9 ± 3.6 | 23.7 ± 9.7 | 92.8 ± 0.4 | 40.8 ± 6.1 | – |
| TKAKRRVVQREKRAAIGALP [Peptide 2015, gp160 peptide 501-520, HIV-1 MN] | 83.0 ± 6.3 | 37.7 ± 2.0 | – | 23.7 ± 3.4 | 6.5 ± 2.0 | – | 44.5 ± 5.4 | 29.3 ± 5.1 | – | – | – |
| YTTKNIIGTIRQAHCNISRA [Peptide 1987, gp160 peptide 321-340, HIV-1 MN] | – | – | 56.8 ± 0.3 | – | – | 42.2 ± 3.4 | – | – | – | – | – |
| actin | – | – | – | – | – | – | – | – | – | – | inhibition of gp120 binding to VH3 IgM (VH3 IgM binding to gp120): neither actin nor the 1925 peptide inhibited |
| gp120: recombinant gp120 from HIV-1SF2 expressed in CHO cells | – | – | – | – | – | – | – | – | – | – | fraction of B-cell population (CD19+) that bound gp120 (CD19+ tonsil B-cells): 4% and 3-6%; fraction of T-cell population (CD19-) that bound gp120 [7]: 68% and 65% |
| thyroglobulin | – | – | – | – | – | – | – | – | – | – | inhibition of gp120 binding to VH3 IgM (VH3 IgM binding to gp120): inhibited gp120 binding to VH3 IgM |
